The experiment has as its system L1210 leukemia ip in BDF1 mice, survival T/C. The experiment in a line: NCI In Vivo Anticancer Drug Screen. Data for tumor model L1210 Leukemia (intraperitoneal) in B6D2F1 (BDF1) mice. Particulars: endpoint: mean survival time, higher = longer survival. In outline:
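In this screen, tumor-bearing mice given compound are compared to those given vehicle, and their survival values are reported as a treated-to-control quotient.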

Where [1] appears, read: dose: 3.12 mg/kg/injection, schedule: Q01DX009 (ip), vehicle: Klucel (hydroxypropylcellulose) (HPC).
Where [2] appears, read: dose: 6.25 mg/kg/injection, schedule: Q01DX009 (ip), vehicle: Klucel (hydroxypropylcellulose) (HPC).
Where [3] appears, read: dose: 100.0 mg/kg/injection, schedule: Q01DX009 (ip), vehicle: Klucel (hydroxypropylcellulose) (HPC).
Where [4] appears, read: dose: 200.0 mg/kg/injection, schedule: Q01DX009 (ip), vehicle: Klucel (hydroxypropylcellulose) (HPC).
Where [5] appears, read: dose: 400.0 mg/kg/injection, schedule: Q01DX009 (ip), vehicle: Klucel (hydroxypropylcellulose) (HPC).
[6] abbreviates: dose: 100.0 mg/kg/injection, schedule: Q04DX003 (ip), vehicle: Klucel (hydroxypropylcellulose) (HPC).
Where [7] appears, read: dose: 200.0 mg/kg/injection, schedule: Q04DX003 (ip), vehicle: Klucel (hydroxypropylcellulose) (HPC).
[8] abbreviates: dose: 400.0 mg/kg/injection, schedule: Q04DX003 (ip), vehicle: Klucel (hydroxypropylcellulose) (HPC).

“And” between values parts separate entries of the source, which are not always exact repeats. Equal values may be shown once. Toxic doses and inconclusive results are not listed.

On to `O=C1C(F)=C(N2CC2)C(=O)C(F)=C1N1CC1`, for which the T/C by setting is: (dose: 0.39 mg/kg/injection, schedule: Q01DX009 (ip), vehicle: Klucel (hydroxypropylcellulose) (HPC)) 104 % of control; (dose: 0.78 mg/kg/injection, schedule: Q01DX009 (ip), vehicle: Klucel (hydroxypropylcellulose) (HPC)) 100 % of control; (dose: 0.78 mg/kg/injection, schedule: Q04DX003 (ip), vehicle: alcohol) 113 % of control; (dose: 1.56 mg/kg/injection, schedule: Q01DX009 (ip), vehicle: Klucel (hydroxypropylcellulose) (HPC)) 116 % of control; (dose: 1.56 mg/kg/injection, schedule: Q04DX003 (ip), vehicle: alcohol) 105 % of control; under setting [1], 102 % of control. In addition, the T/C is, setting by setting: (dose: 3.12 mg/kg/injection, schedule: Q04DX003 (ip), vehicle: alcohol) 105 % of control; under setting [2], 93 % of control; (dose: 6.25 mg/kg/injection, schedule: Q04DX003 (ip), vehicle: saline) 110 % of control; (dose: 9.2 mg/kg/injection, schedule: Q01DX009 (ip), vehicle: Klucel (hydroxypropylcellulose) (HPC)) 98 % of control; (dose: 14.0 mg/kg/injection, schedule: Q01DX009 (ip), vehicle: Klucel (hydroxypropylcellulose) (HPC)) 87 % of control.

`O=NN(CCCl)C(=O)NC1CCC(CC(=O)O)CC1` (configuration not stated): the T/C (dose: 3.5 mg/kg/injection, schedule: Q01DX001 (ip), vehicle: Klucel (hydroxypropylcellulose) (HPC)) was 114 % of control; the T/C (dose: 5.3 mg/kg/injection, schedule: Q01DX001 (ip), vehicle: Klucel (hydroxypropylcellulose) (HPC)) was 171 % of control; the T/C (dose: 12.0 mg/kg/injection, schedule: Q01DX001 (ip), vehicle: Klucel (hydroxypropylcellulose) (HPC)) is 235 % of control and 536 % of control; the T/C (dose: 15.0 mg/kg/injection, schedule: Q01DX001 (ip), vehicle: carboxymethylcellulose (CMC)) was 151 % of control and 178 % of control; the T/C (dose: 18.0 mg/kg/injection, schedule: Q01DX001 (ip), vehicle: Klucel (hydroxypropylcellulose) (HPC)) was 352 % of control and 377 % of control; the T/C (dose: 18.0 mg/kg/injection, schedule: Q01DX001 (ip), vehicle: carboxymethylcellulose (CMC)) is 403 % of control. In addition, the T/C by setting is: (dose: 23.0 mg/kg/injection, schedule: Q01DX001 (ip), vehicle: carboxymethylcellulose (CMC)) 336 % of control and 351 % of control; (dose: 26.0 mg/kg/injection, schedule: Q01DX001 (ip), vehicle: Klucel (hydroxypropylcellulose) (HPC)) 352 % of control and 439 % of control; (dose: 26.0 mg/kg/injection, schedule: Q01DX001 (ip), vehicle: carboxymethylcellulose (CMC)) 454 % of control; (dose: 34.0 mg/kg/injection, schedule: Q01DX001 (ip), vehicle: carboxymethylcellulose (CMC)) 445 % of control and 454 % of control; (dose: 40.0 mg/kg/injection, schedule: Q01DX001 (ip), vehicle: Klucel (hydroxypropylcellulose) (HPC)) 319 % of control and 381 % of control; (dose: 40.0 mg/kg/injection, schedule: Q01DX001 (ip), vehicle: carboxymethylcellulose (CMC)) 418 % of control. For the same compound, the T/C is 413 % of control and 476 % of control (dose: 51.0 mg/kg/injection, schedule: Q01DX001 (ip), vehicle: carboxymethylcellulose (CMC)); 111 % of control and 202 % of control (dose: 60.0 mg/kg/injection, schedule: Q01DX001 (ip), vehicle: Klucel (hydroxypropylcellulose) (HPC)); 102 % of control (dose: 60.0 mg/kg/injection, schedule: Q01DX001 (ip), vehicle: carboxymethylcellulose (CMC)); 175 % of control and 258 % of control (dose: 77.0 mg/kg/injection, schedule: Q01DX001 (ip), vehicle: carboxymethylcellulose (CMC)).

As to `Clc1ccc2nc(-c3ccc(Cl)c(Cl)c3)cc(-c3ccccc3)c2c1`, the T/C is, setting by setting: under setting [3], 94 % of control; under setting [4], 86 % of control; under setting [5], 97 % of control.

Regarding `COc1cc2c(c(OC)c1OC)CCc1cnoc1-2`, the T/C runs as follows: (dose: 100.0 mg/kg/injection, schedule: Q04DX002 (ip), vehicle: Klucel (hydroxypropylcellulose) (HPC)) 97 % of control; (dose: 200.0 mg/kg/injection, schedule: Q04DX002 (ip), vehicle: Klucel (hydroxypropylcellulose) (HPC)) 112 % of control; (dose: 400.0 mg/kg/injection, schedule: Q04DX002 (ip), vehicle: Klucel (hydroxypropylcellulose) (HPC)) 91 % of control.

`O=C1/C(=C\c2ccccc2)C(NC2CCCCC2)c2ccccc21` (configuration not stated): the T/C under setting [1] is 108 % of control; the T/C under setting [2] was 101 % of control; the T/C (dose: 12.5 mg/kg/injection, schedule: Q01DX009 (ip), vehicle: Klucel (hydroxypropylcellulose) (HPC)) is 95 % of control.

On to `O=[N+]([O-])c1cnc2ccnn2c1`, for which the T/C runs as follows: under setting [3], 101 % of control; under setting [6], 100 % of control; under setting [4], 97 % of control; under setting [7], 92 % of control; under setting [5], 111 % of control; under setting [8], 100 % of control.

Take `CCN(CC)C(=O)N1CCN(c2ccc(OC)cc2)CC1`: the T/C by setting is: (dose: 75.0 mg/kg/injection, schedule: Q01DX001 (ip), vehicle: saline) 94 % of control; (dose: 75.0 mg/kg/injection, schedule: Q04DX003 (ip), vehicle: saline) 100 % of control; (dose: 150.0 mg/kg/injection, schedule: Q01DX001 (ip), vehicle: saline) 100 % of control; (dose: 150.0 mg/kg/injection, schedule: Q04DX003 (ip), vehicle: saline) 100 % of control; (dose: 300.0 mg/kg/injection, schedule: Q01DX001 (ip), vehicle: saline) 91 % of control; (dose: 300.0 mg/kg/injection, schedule: Q04DX003 (ip), vehicle: saline) 110 % of control.

On to `OC(C(c1ccccc1)N1CCOCC1)C(O)(c1ccccc1)c1ccccc1` (configuration not stated), for which the T/C (dose: 100.0 mg/kg/injection, schedule: Q01DX001 (ip), vehicle: saline) was 106 % of control; the T/C (dose: 200.0 mg/kg/injection, schedule: Q01DX001 (ip), vehicle: saline) is 94 % of control; the T/C (dose: 400.0 mg/kg/injection, schedule: Q01DX001 (ip), vehicle: saline) was 97 % of control.

As to `O=C(O)c1ccc2c(c1Nc1ccc(-c3ccc(Nc4c(C(=O)O)ccc5c4C(=O)c4ccccc4C5=O)cc3)cc1)C(=O)c1ccccc1C2=O`, the T/C reads like this: under setting [6], 93 % of control; under setting [7], 97 % of control; under setting [8], 101 % of control.

`O=[N+]([O-])c1ccc(N2CCC(CCCC3CCN(c4ccc([N+](=O)[O-])cc4[N+](=O)[O-])CC3)CC2)c([N+](=O)[O-])c1`: the T/C reads like this: (dose: 25.0 mg/kg/injection, schedule: Q01DX009 (ip), vehicle: Klucel (hydroxypropylcellulose) (HPC)) 101 % of control; (dose: 50.0 mg/kg/injection, schedule: Q01DX009 (ip), vehicle: Klucel (hydroxypropylcellulose) (HPC)) 93 % of control; under setting [3], 95 % of control and 105 % of control; under setting [6], 98 % of control; under setting [7], 97 % of control; under setting [8], 104 % of control.

`CCS(=O)(=O)c1ccc(NC(=O)OC2CCCCCC2)cc1`: the T/C (dose: 100.0 mg/kg/injection, schedule: Q01DX001 (ip), vehicle: other) was 91 % of control; the T/C (dose: 200.0 mg/kg/injection, schedule: Q01DX001 (ip), vehicle: other) is 91 % of control; the T/C (dose: 400.0 mg/kg/injection, schedule: Q01DX001 (ip), vehicle: other) is 93 % of control.

In the case of `CNC(=O)c1ccccc1N`, the T/C was 100 % of control (dose: 100.0 mg/kg/injection, schedule: Q04DX003 (ip), vehicle: saline with Tween-80); 95 % of control (dose: 200.0 mg/kg/injection, schedule: Q04DX003 (ip), vehicle: saline with Tween-80); 98 % of control (dose: 400.0 mg/kg/injection, schedule: Q04DX003 (ip), vehicle: saline with Tween-80).

Turning to `CC[N+](CC)(CC)CCCNC(c1ccccc1)C(Cl)(Cl)Cl` (configuration not stated), the T/C by setting is: (dose: 12.5 mg/kg/injection, schedule: Q01DX001 (ip), vehicle: saline) 95 % of control; (dose: 25.0 mg/kg/injection, schedule: Q01DX001 (ip), vehicle: saline) 97 % of control; (dose: 50.0 mg/kg/injection, schedule: Q01DX001 (ip), vehicle: saline) 95 % of control.

Consider `O=[N+]([O-])c1ccc(Oc2c(Cl)c(Cl)c(Cl)c(Cl)c2Cl)c([N+](=O)[O-])c1`, for which the T/C is 95 % of control (dose: 222.0 mg/kg/injection, schedule: Q01DX Z (ip), vehicle: methylcellulose (MC)); 94 % of control (dose: 333.0 mg/kg/injection, schedule: Q01DX Z (ip), vehicle: methylcellulose (MC)); 93 % of control (dose: 500.0 mg/kg/injection, schedule: Q01DX Z (ip), vehicle: methylcellulose (MC)).

The values are drawn from PubChem BioAssay AID248 (DTP/NCI, 2004).
